From patent US20250228937A1, “MEDICAMENT FOR TREATMENT AND/OR PREVENTION OF CANCER” (TORAY INDUSTRIES, INC., priority 2021, published 2025)

System: human breast cancer cells BT474
Experiment: In vivo antitumor effect of anti-CAPRIN-1 antibody and etoposide in BT474 cancer-bearing mice (Comparative Example 1)
Design: species or system NOD-SCID mice
Conditions: etoposide alone, four times, day 55 after bearing cancer
Protocol: Next, an in vivo antitumor effect in a cancer-bearing mouse by a combined use of the anti-CAPRIN-1 antibody (anti-CAPRIN-1 humanized antibody #1) produced in Example 1 and etoposide (a topoisomerase inhibitor (topoisomerase II inhibitor) other than topotecan) was evaluated.
Specifically, the antitumor effect of the combination of the anti-CAPRIN-1 antibody and etoposide was studied using NOD-SCID mice in which human-derived cancer cells expressing CAPRIN-1 protein were subcutaneously transplanted. Human breast cancer cells BT474 were subcutaneously transplanted at 2×10^7 cells per mouse as a mixture with Matrigel (Sigma) and allowed to grow until a tumor became approximately 190 to 192 mm^3 to prepare cancer-bearing mice. […]
For a comparative control group, the same dose of the same anti-CAPRIN-1 antibody as above was administered once a week to cancer-bearing mice. […] After the start of administration, the sizes of cancers in the cancer-bearing mice were measured over time using calipers. The tumor volume of each individual was calculated according to a standard method using a calculation formula: (Length of the major axis of the tumor)×(Length of the minor axis of the tumor)^2×0.5, and the average of the treated group was calculated.

COc1cc([C@@H]2c3cc4c(cc3[C@@H](O[C@@H]3O[C@@H]5CO[C@@H](C)O[C@H]5[C@H](O)[C@H]3O)[C@H]3COC(=O)[C@H]23)OCO4)cc(OC)c1O [etoposide]
tumor volume, assuming that the tumor volume of the negative control was 100% (high dose 15 mg/kg once every four days): 79%
tumor volume, assuming that the tumor volume of the negative control was 100% (low dose 5 mg/kg once every four days): 92%
